Biological target: T1, S-ribosylhomocysteine lyase (Vibrio harveyi, UniProt B0LUE4)
T1 sequence (B0LUE4 whole entry): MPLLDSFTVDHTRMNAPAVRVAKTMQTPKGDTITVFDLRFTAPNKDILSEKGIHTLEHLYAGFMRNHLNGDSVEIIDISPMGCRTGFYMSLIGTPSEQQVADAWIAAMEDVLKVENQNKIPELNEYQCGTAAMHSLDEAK
Experiment: bacterial growth suppression, V. harveyi cultures – absorbance, dose retest, counter-screen for AI-2 quorum sensing modulator project, confirmation (AID 2725)

Compound | EC50
C=Cn1c(C(=O)O)ccc1-c1ccc(CC)cc1 | > 160 µM
COc1cc(NC(=O)CN2C(=O)NC(c3ccccc3)(c3ccccc3)C2=O)cc(OC)c1 [MLS001176525] | 13.7 µM
CCc1ccc(S(=O)(=O)Nc2ccc(Br)cn2)cc1 [MLS001211346] | > 160 µM
CCCc1ccc(S(=O)(=O)N(C)S(=O)(=O)c2ccc(F)cc2)cc1 [N-(4-fluorophenyl)sulfonyl-N-methyl-4-propylbenzenesulfonamide] | 4.55 µM
CN(C)S(=O)(=O)c1ccc(NC(=S)NC(=O)Cc2ccccc2)cc1 [N-[[4-(dimethylsulfamoyl)phenyl]carbamothioyl]-2-phenyl-ethanamide] | > 160 µM
Cc1cccc(NS(=O)(=O)c2ccc(Oc3ccccc3)cc2)n1 [SMR000071466] | > 160 µM
Cn1cnc(S(=O)(=O)Nc2ccc(OC(F)(F)F)cc2)c1 [SMR000314513] | > 160 µM

— BindingDB's records for doi:10.7270/Q2T72FW8 (Broad Institute, 2010)
